Measured values as given in patent US8431593B2, “Heteroaryl amide derivatives” (H. Lundbeck A/S, priority 2006, dated 2013).

Molecular target: T1, P2X7 receptor (Homo sapiens, UniProt Q99572)
T1 construct: host or cells: SH-SY5Y
T1 sequence (Q99572 1-595): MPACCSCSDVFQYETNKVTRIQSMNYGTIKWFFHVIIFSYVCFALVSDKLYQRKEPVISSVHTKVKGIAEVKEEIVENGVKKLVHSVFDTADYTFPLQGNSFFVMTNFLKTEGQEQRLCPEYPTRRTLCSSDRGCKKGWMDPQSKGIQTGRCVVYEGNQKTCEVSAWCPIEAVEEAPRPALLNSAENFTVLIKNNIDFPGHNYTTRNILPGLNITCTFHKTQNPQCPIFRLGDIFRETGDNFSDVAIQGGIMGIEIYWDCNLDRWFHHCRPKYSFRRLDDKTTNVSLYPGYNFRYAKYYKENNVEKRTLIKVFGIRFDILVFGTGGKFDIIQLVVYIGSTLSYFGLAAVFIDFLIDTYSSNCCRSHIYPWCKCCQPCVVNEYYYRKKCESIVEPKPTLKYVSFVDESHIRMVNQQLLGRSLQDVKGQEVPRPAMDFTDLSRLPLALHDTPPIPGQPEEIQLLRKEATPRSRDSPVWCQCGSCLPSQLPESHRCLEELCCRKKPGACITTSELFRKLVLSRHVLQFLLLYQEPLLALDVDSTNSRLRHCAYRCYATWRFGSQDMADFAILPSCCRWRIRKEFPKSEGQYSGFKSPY
Experiment: P2X7 calcium mobilization assay, high throughput, antagonist activity (Example 4A)
Type: cell-based
Details: fluorescence response of cells exposed to 80 μM 2′(3′)-O-(4-benzoyl-benzoyl)adenosine 5′-triphosphate; Example 4A; read-out: IC50
How it was run: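 Cells plated 100,000/well the day before; after 1 h dye loading and one rinse, cells were preincubated 1 h at room temperature with test compound. Calcium mobilization then read on FLIPR^TETRA; maximum RFU corrected by subtracting mean no-agonist response and referenced to mean agonist-control maximum.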

SMILES	IC50 [nM]
O=C(CC12CC3CC(CC(C3)C1)C2)Nc1cccc2nc(C(=O)N3CCCC3)cn12 [Compound 358, 2-adamantan-1-yl-N-[2-(pyrrolidin-1-ylcarbonyl)imidazo [1,2-a]pyridin-5-yl]acetamide]	< 2000
CCCCN(C)C(=O)c1cn2c(NC(=O)CC34CC5CC(CC(C5)C3)C4)cccc2n1 [Compound 360, 5-[(adamantan-1-ylacetyl)amino]-N-butyl-N-methylimidazo[1,2-a]pyridine-2-carboxamide]	< 2000
CCCN(C)C(=O)c1cn2c(NC(=O)CC34CC5CC(CC(C5)C3)C4)cccc2n1 [Compound 361, 5-[(adamantan-1-ylacetyl)amino]-N-methyl-N-propylimidazo[1,2-a]pyridine-2-carboxamide]	< 2000
O=C(CC12CC3CC(CC(C3)C1)C2)Nc1cccc2nc(C(=O)N3CCSCC3)cn12 [Compound 362, 2-adamantan-1-yl-N-[2-(thiomorpholin-4-ylcarbonyl)imidazo[1,2-a]pyridin-5-yl]acetamide]	< 2000
CC1CCN(C(=O)c2cn3c(NC(=O)CC45CC6CC(CC(C6)C4)C5)cccc3n2)CC1 [Compound 363, 2-adamantan-1-yl-N-{2-[(4-methylpiperidin-1-yl)carbonyl]imidazo[1,2-a]pyridin-5-yl}acetamide]	< 2000
O=C(CC12CC3CC(CC(C3)C1)C2)Nc1cccc2nc(C(=O)N3CCOCC3)cn12 [Compound 364, 2-adamantan-1-yl-N-[2-(morpholin-4-ylcarbonyl)imidazo[1,2-a]pyridin-5-yl]acetamide]	< 2000
CCN(CC)C(=O)c1cn2c(NC(=O)CC34CC5CC(CC(C5)C3)C4)cccc2n1 [Compound 365, 5-[(adamantan-1-ylacetyl)amino]-N,N-diethylimidazo[1,2-a]pyridine-2-carboxamide]	< 2000
COCCN(C)C(=O)c1cn2c(NC(=O)CC34CC5CC(CC(C5)C3)C4)cccc2n1 [Compound 366, 5-[(adamantan-1-ylacetyl)amino]-N-(2-methoxyethyl)-N-methylimidazo[1,2-a]pyridine-2-carboxamide]	< 2000
CC(C)CN(C)C(=O)c1cn2c(NC(=O)CC34CC5CC(CC(C5)C3)C4)cccc2n1 [Compound 367, 5-[(adamantan-1-ylacetyl)amino]-N-isobutyl-N-methylimidazo[1,2-a]pyridine-2-carboxamide]	< 2000
CN(CC1OCCO1)C(=O)c1cn2c(NC(=O)CC34CC5CC(CC(C5)C3)C4)cccc2n1 [Compound 368, 5-[(adamantan-l-ylacetyl)amino]-N-(1,3-dioxolan-2-ylmethyl)-N-methylimidazo[1,2-a]pyridine-2-carboxamide]	< 2000
CCN(C)C(=O)c1cn2c(NC(=O)CC34CC5CC(CC(C5)C3)C4)cccc2n1 [Compound 369, 5-[(adamantan-1-ylacetyl)amino]-N-ethyl-N-methylimidazo[1,2-a]pyridine-2-carboxamide]	< 2000
CN(C)C(=O)c1cn2c(NC(=O)CC34CC5CC(CC(C5)C3)C4)cccc2n1 [Compound 370, 5-[(adamantan-1-ylacetyl)amino]-N,N-dimethylimidazo[1,2-a]pyridine-2-carboxamide]	< 2000
COC[C@@H]1CCCN1C(=O)c1cn2c(NC(=O)CC34CC5CC(CC(C5)C3)C4)cccc2n1 [Compound 371, 2-adamantan-1-yl-N-(2-{[(2S)-2-(methoxymethyl)pyrrolidin-1-yl]carbonyl}imidazo [1,2-a]pyridin-5-yl)acetamide]	< 2000
CCCCN(CC)C(=O)c1cn2c(NC(=O)CC34CC5CC(CC(C5)C3)C4)cccc2n1 [Compound 373, 5-[(adamantan-1-ylacetyl)amino]-N-butyl-N-ethylimidazo[1,2-a]pyridine-2-carboxamide]	< 2000
CCCN(CCC)C(=O)c1cn2c(NC(=O)CC34CC5CC(CC(C5)C3)C4)cccc2n1 [Compound 374, 5-[(adamantan-1-ylacetyl)amino]-N,N-dipropylimidazo[1,2-a]pyridine-2-carboxamide]	< 2000
CCOC(=O)CN(CC)C(=O)c1cn2c(NC(=O)CC34CC5CC(CC(C5)C3)C4)cccc2n1 [Compound 375, ethyl N-({5-[(adamantan-1-ylacetyl)amino]imidazo [1,2-a]pyridin-2-yl}carbonyl)-N-ethylglycinate]	< 2000

SMILES	IC50 [nM]
COC(=O)C1CCCN1C(=O)c1cn2c(NC(=O)CC34CC5CC(CC(C5)C3)C4)cccc2n1 (centres unmarked) [Compound 376, methyl 1-({5-[(adamantan-1-ylacetyl)amino]imidazo [1,2-a]pyridin-2-yl}carbonyl)prolinate]	< 2000
COC(=O)CN(C)C(=O)c1cn2c(NC(=O)CC34CC5CC(CC(C5)C3)C4)cccc2n1 [Compound 377, methyl N-({5-[(adamantan-1-ylacetyl)amino]imidazo[1,2-a]pyridin-2-yl}carbonyl)-N-methylglycinate]	< 2000
COCCN(C(=O)c1cn2c(NC(=O)CC34CC5CC(CC(C5)C3)C4)cccc2n1)C(C)C [Compound 379, 5-[(adamantan-1-ylacetyl)amino]-N-isopropyl-N-(2-methoxyethyl)imidazo [1,2-a]pyridine-2-carboxamide]	< 2000
O=C1CCN(C(=O)c2cn3c(NC(=O)CC45CC6CC(CC(C6)C4)C5)cccc3n2)CCN1 [Compound 380, 2-adamantan-1-yl-N-{2-[(5-oxo-1,4-diazepan-1-yl)carbonl]imidazo [1,2-a]pyridin-5-yl}acetamide]	< 2000
O=C(CC12CC3CC(CC(C3)C1)C2)Nc1cccc2nc(C(=O)N3CCC(C(F)(F)F)CC3)cn12 [Compound 382, 2-adamantan-1-yl-N-(2-{[4-(trifluoromethyl)piperidin-1-yl]carbonyl}imidazo[1,2-a]pyridin-5-yl)acetamide]	< 2000
COC1CCN(C(=O)c2cn3c(NC(=O)CC45CC6CC(CC(C6)C4)C5)cccc3n2)CC1 [Compound 385, 2-adamantan-1-yl-N-{2-[(4-methoxypiperidin-1-yl)carbonyl]imidazo[1,2-a]pyridin-5-yl}acetamide]	< 2000
O=C(CC12CC3CC(CC(C3)C1)C2)Nc1cccc2nc(C(=O)N3CCC(F)CC3)cn12 [Compound 387, 2-adamantan-1-yl-N-{2-[(4-fluoropiperidin-1-yl)carbonyl]imidazo[1,2-a]pyridin-5-yl}acetamide]	< 2000
O=C(CC12CC3CC(CC(C3)C1)C2)Nc1cccc2nc(C(=O)N3CCC(F)(F)CC3)cn12 [Compound 388, 2-adamantan-l-yl-N-(2-[(4,4-difluoropiperidin-1-yl)carbonyl]imidazo [1,2-a]pyridin-5-yl}acetamide]	< 2000
COCCC1CCN(C(=O)c2cn3c(NC(=O)CC45CC6CC(CC(C6)C4)C5)cccc3n2)CC1 [Compound 389, 2-adamantan-1-yl-N-(2-{[4-(2-methoxyethyl)piperidin-1-yl]carbonyl}imidazo[1,2-a]pyridin-5-yl)acetamide]	< 2000
CN(C(=O)c1cn2c(NC(=O)CC34CC5CC(CC(C5)C3)C4)cccc2n1)C1CCOC1 (centres unmarked) [Compound 393, 5-[(adamantan-1-ylacetyl)amino]-N-methyl-N-(tetrahydrofuran-3-yl)imidazo[1,2-a]pyridine-2-carboxamide]	< 2000
COCC1CCN(C(=O)c2cn3c(NC(=O)CC45CC6CC(CC(C6)C4)C5)cccc3n2)CC1 [Compound 396, 2-adamantan-1-yl-N-(2-{[4-(methoxymethyl)piperidin-1-yl]carbonyl}imidazo[1,2-a]pyridin-5-yl)acetamide]	< 2000
CS(=O)(=O)NC1CCN(C(=O)c2cn3c(NC(=O)CC45CC6CC(CC(C6)C4)C5)cccc3n2)CC1 [Compound 398, 2-adamantan-1-yl-N-[2-({4-[(methylsulfonyl)amino]piperidin-1-yl}carbonyl)imidazo [1,2-a]pyridin-5-yl]acetamide]	< 2000
CS(=O)(=O)N1CCN(C(=O)c2cn3c(NC(=O)CC45CC6CC(CC(C6)C4)C5)cccc3n2)CC1 [Compound 399, 2-adamantan-1-yl-N-(2-{[4-(methylsulfonyl)piperazin-1-yl]carbonyl}imidazo [1,2-a]pyridin-5-yl)acetamide]	< 2000
CN(C)[S@SP3](=O)(=O)N1CCN(C(=O)c2cn3c(NC(=O)CC45CC6CC(CC(C6)C4)C5)cccc3n2)CC1 [Compound 400, 2-adamantan-1-yl-N-(2-{[4-(dimethylsulfamoyl)piperazin-1-yl]carbonyl}imidazo [1,2-a]pyridin-5-yl)acetamide]	< 2000
CC(C)C(=O)NC1CCN(C(=O)c2cn3c(NC(=O)CC45CC6CC(CC(C6)C4)C5)cccc3n2)CC1 [Compound 402, N-[1-({5-[(adamantan-1-ylacetyl)amino]imidazo[1,2-a]pyridin-2-yl}carbonyl)piperidin-4-yl]-2-methylpropanamide]	< 2000
CN(CCNS(C)(=O)=O)C(=O)c1cn2c(NC(=O)CC34CC5CC(CC(C5)C3)C4)cccc2n1 [Compound 404, 5-[(adamantan-1-ylacetyl)amino]-N-methyl-N-{2-[(methylsulfonyl)amino]ethyl} imidazo[1,2-a] pyridine-2-carboxamide]	< 2000
